Measured values taken from patent publication US7534806B2, “Method for treating neuropathic pain and associated syndromes” (Avigen, Inc., priority 2004, dated 2009).
“Also recorded” adds a separate entry of the source.

What was measured:
[1] = system: mechanical allodynia in rat chronic constriction injury (CCI) model; assay: von Frey test of mechanical allodynia in rat chronic constriction injury (CCI) model of neuropathic pain; format: in vivo
[2] = Dose selection study: rat tolerability to intraperitoneal ibudilast; format: in vivo
Text: Dose Selection Study: Preliminary studies were designed to assess rat tolerability to single and multiple intraperitoneal administrations of ibudilast. […] These included extended head, increased respiratory rate, occasional circling behavior and vocalization, and lethargy.

[3] = system: astrocyte activation (Glial Fibrillary Acidic Protein staining); assay: GFAP immunohistochemistry of lumbar spinal cord from CCI rats (astrocyte activation); format: in vivo, rat; details: 7.5 mg/kg ip BID for 5 days
Text: Study of Attenuation of Glial Cell Activation in Ibudilast-Treated CCI Rats: At the end of the 5-day study, animals (4/group) from the CCI vehicle control or CCI ibudilast group were euthanized and lumbar spinal cord tissue was isolated and stained for astrocyte activation with an antibody reactive against Glial Fibrillary Acidic Protein (GFAP) as described in […] and J A DeLeo, Brain Research (2002) 956:294-301. FIG. 6 depicts a typical staining profile from CCI vehicle-treated animals. Enlarged (activated) astrocytes, typically observed in subjects with neuropathic pain (CCI rats in this case), are visible in the CCI group.

in vivo = details: rat
Protocol: Pharmacokinetics. Plasma Ibudilast Concentrations Correlating with Efficacy: Dedicated pharmacokinetic studies in normal rats were performed with ibudilast dosing i.p. or p.o. in order to correlate drug plasma levels with changes in mechanical allodynia (i.e. neuropathic pain efficacy). Following dosing (time t=0), serial bleeding from n=3 rats/time point and 6 time points interspersed between 5 min and 6 hr was obtained, plasma was isolated, and ibudilast concentrations were determined by a HPLC and two-dimensional mass spectrometry (LC/MS/MS) method (described in Example 4) sensitive to ≦1 ng/ml. […] Moreover, pharmacokinetic-pharmacodynamic analyses involving PK parameters including Cmax, area under the curve (AUC), and elimination half-life (t1/2) indicated Cmax is an important parameter in establishing efficacy.
(§1) Tissue Concentration Analysis: A solution of ibudilast (Haorui) at 0.5 mg/ml in DMSO was used as the working stock. A solution of ibudilast at 0.5 mg/ml in DMSO was prepared using the powdered ibudilast provided with the study samples and used as the working stock. Calibration standards in plasma were prepared by diluting each 0.5 mg/ml stock 1 in 100 into rat plasma to 5000 ng/ml (5 μl+495 μl), then diluting further, to 2.29 ng/ml, by 3-fold serial dilution with plasma. Standards 3, 5 and 7 were used as low, mid and high QC samples, respectively.
(§2) Calibration standards, QC and plasma study samples were prepared for HPLC injection by precipitating 25 μl of plasma with 3× volumes (75 μl) of ice cold acetonitrile containing 50 ng/ml diphenhydramine and 100 ng/ml dextromethorphan as the internal standards. Tissue study samples were prepared for HPLC injection by adding 1 μl of water per mg of tissue plus 3× volumes (relative to water) of ice cold acetonitrile containing 50 ng/ml diphenhydramine and 100 ng/ml dextromethorphan as the internal standards, then homogenized with an electric homogenizer. Following centrifugation at 6100 g for 30 minutes, 40 μl of each supernatant was diluted with 200 μl of 0.2% formic acid in water and analyzed by the following LC/MS/MS conditions: • HPLC: Shimadzu VP System • Mobile Phase: 0.2% formic acid in water (A) and in methanol (B) • Column: 2×10 mm Peeke Scientific DuraGel G C18 guard cartridge • Injection Volume: 100 μl • Gradient: 5-95% B in 2 minutes after a 0.75 minute wash • Flow Rate: 400 μl/min • Mass Spectrometer: Applied Biosystems/MDS SCIEX API 3000 • Interface: TurboIonSpray (ESI) at 400° C. • Ionization Mode: Positive Ion • Q1/Q3 Ions: 231.2/161.2 for ibudilast Studies and Results

[4] = system: mechanical allodynia in rat Chung model; assay: von Frey test of mechanical allodynia in rat Chung model of neuropathic pain; format: in vivo
Protocol: Test Agents: Haorui and Sigma ibudilast was formulated as described above. Ibudilast was administered at 10 mg/kg twice daily, (3.7 ml/kg of 2.7 mg/ml in 35% PEG/saline) i.p. each morning (typically 8 am) and pm (typically 3 pm). Animals: Pathogen-free adult male Wistar rats (150-200 g; Elevage Janvier) were used in all experiments. Rats were housed in temperature (23+/−3° C.) and light (12:12 light: dark; lights on at 0700 hr) controlled rooms with standard rodent chow and water available ad libitum. Behavioral testing was performed during the light cycle. Chung model: Rats were anesthetized under isoflurane (4-5% induction and 2-3% maintenance in 100% oxygen) and an incision at the L4-S2 levels was performed to expose the left L5 and L6 spinal nerves. A ligature was tied tightly around each nerve. The wound was then sutured. The rats received an injection of clamoxil and were allowed to recover. Sham controls were subjected to the same surgical procedure except that the nerves were not ligated. […] Multi-day Study for Neuropathic Pain Efficacy: A 3-day efficacy study was undertaken wherein the animals (n=3-4/group for shams and 5/group for Chung animals) were administered 10 mg/kg ibudilast or 35% PEG/saline vehicle twice daily and mechanical allodynia was monitored at various time intervals post-dosing. […] A pre-dose reading was acquired each day in order to assess durability of efficacy.

[5] = system: mechanical allodynia in rat model of taxol-induced neuropathic pain; assay: von Frey test of mechanical allodynia in rat model of taxol-induced neuropathic pain; format: in vivo
Protocol: Test Agents: Ibudilast was formulated as described above. Ibudilast was administered at 7.5 mg/kg (2.7 ml/kg of 2.8 mg/ml in 35% PEG/saline i.p. each morning (typically 8 am) and pm (typically 3 pm). Animals: Pathogen-free adult male Sprague-Dawley rats (280-350 g; Harlan Labs) were used in all experiments. Rats were housed in temperature (23+/−3° C.) and light (12:12 light: dark; lights on at 0700 hr) controlled rooms with standard rodent chow and water available ad libitum. Behavioral testing was performed during the light cycle. Taxol Model: Neuropathic pain was induced by administration of 4 i.p. injections on alternate days (Day 0, 2, 4, and 6) of 1 mg/kg taxol (Paclitaxel®, cumulative dose 4 mg/kg). Neuropathic pain onset was maximal around day 19 post taxol administration (Day 0). Ibudilast or vehicle control treatment initiated at either day 19 (treatment paradigm) or day 12 (prevention paradigm). Allodynia results were determined prior to the morning administration of vehicle or ibudilast. Behavioral Measures von Frey Test: The von Frey test was performed within the sciatic or saphenous innervation area of the hindpaws as previously described above for the CCI model. All testing was conducted in the am prior to the morning dose of ibudilast for that day. Multi-day Study for Neuropathic Pain Efficacy: 7.5 mg/kg Ibudilast was administered twice daily for 7 days starting day 20 after the first taxol dose (Day 0). Mechanical allodynia was assessed prior to the first dose of ibudilast each day. Prevention of Taxol-Induced Neuropathy: A second study was performed identical in nature to the multi-day study described above except that ibudilast or vehicle control administrations were initiated on day 12 just as allodynia was becoming clearly evident.

[6] = Rat ibudilast plasma PK and tissue distribution (plasma, muscle, brain, spinal cord); format: in vivo
Protocol: Test Agents: Ibudilast was prepared in 15% ethanol/saline. Drug stability and concentration were validated by HPLC/MS/MS.
Animals: Pathogen-free adult male Sprague-Dawley rats (280-350 g; Harlan Labs) were used in all experiments. Rats were housed in temperature (23+/−3° C.) and light (12:12 light: dark; lights on at 0700 hr) controlled rooms with standard rodent chow and water available ad libitum. Behavioral testing was performed during the light cycle.
PK Analysis: Rats (n=3/group) were administered 5 mg/kg ibudilast, i.p. and plasma, muscle, brain, and spinal cord were harvested at 5, 15, 60, 180, and 420 min post administration.
as §1
as §2, with “Tissue study samples were prepared for HPLC injection by adding 1 μl of water per mg of tissue plus 3× volumes (relative to water) of ice cold acetonitrile containing 50 ng/ml diphenhydramine and 100 ng/ml dextromethorphan as the internal standards, then homogenized with an electric homogenizer.” left out

[7] = humans, cited from earlier work
activated microglia = details: dose-dependent; Mizuno et al. 2004; cited from earlier work
[8] = administered systemically; Sugiyama et al. 1993; cited from earlier work

In the case of CC(C)C(=O)c1c(C(C)C)nn2ccccc12 [Ibudilast, 3-isobutyryl-2-isopropylpyrazolo[1,5-a]pyridine], the “days of treatment after which attenuation became durable (pm dosing to next day's pre-am test)” value ([1]; 21 mg/kg p.o. twice daily) is reported as 2 days, the “earliest time of attenuation of allodynia after the first dose” value ([1]; 21 mg/kg p.o. twice daily) is reported as 4 h and the “attenuation of allodynia, oral twice daily” value ([1]; 21 mg/kg p.o. twice daily 2 days then 25.5 mg/kg 3 days, 35% PEG/saline) is reported as “Attenuation of allodynia was observed”. The “days of dosing to durable efficacy lasting overnight” value ([1]; 50 mg/kg oral gavage once daily) was no more than 7 days, the “magnitude of allodynia, oral once daily” value ([1]; 50 mg/kg oral gavage once daily, 10% HCO-60, 10% PEG400 in saline, following 2 days of dosing, shortly after morning dose) was “significantly attenuated the magnitude of allodynia” and the “magnitude of allodynia (50% withdrawal threshold), multi-day study” value ([1]; 2.5, 7.5 or 10 mg/kg i.p. twice daily, 1 week, significant at +2 hr post-administration) was “attenuated the magnitude of allodynia”. The “time after treatment at which reversal of neuropathic pain was still evident” value ([1]; doses >2.5 mg/kg i.p. bid, within two days of regimen) was 16 h, the “paw withdrawal thresholds in ibudilast sham animals” value ([1]; sham-operated rats, single i.p. 10-15 mg/kg) was “no changes in paw withdrawal thresholds” and the “time at which reduction in allodynia was apparent” value ([1]; single i.p. 10-15 mg/kg) was 1 h. For the same compound, the “time of maximum reduction in allodynia” value ([1]; single i.p. 10-15 mg/kg) was 2 h, the “time of return to baseline” value ([1]; single i.p. 10-15 mg/kg) was 16 h and the “acute reduction in allodynia relative to CCI vehicle animals” value ([1]; single i.p. administration of 10-15 mg/kg, measured 1, 2, 4, 16 hr post-administration) was “showed a reduction in allodynia”. The “duration of adverse behavioral effects” value ([2]; i.p. doses >20 mg/kg in 35% PEG/saline) was “up to 1 hr”, the adverse behavioral effects ([2]; i.p. doses >20 mg/kg in 35% PEG/saline, volume </=5 ml/kg) was “produced adverse behavioral effects” and the tolerability ([2]; rat, in vivo, ip, 15 mg/kg) was “generally well tolerated”. For the same compound, the “glial cell activation as measured by GFAP staining” value [3] was “Reduced glial cell activation”, the Cmax (in vivo) was no less than 125 ng/mL and the Cmax (in vivo; ip, 2.5 mg/kg) was 125 ng/mL. The Cmax (in vivo; ip, 7.5 mg/kg) was 1710 ng/mL, the Cmax (in vivo; po, 21 mg/kg) was 325 ng/mL and the Cmax (in vivo; po, 50 mg/kg) was 387 ng/mL. For the same compound, the “time after treatment at which reversal of neuropathic pain was still evident (pre-dose reading)” value ([4]; 10 mg/kg i.p. b.i.d., within two days of regimen) was 16 h, the “magnitude of allodynia (50% withdrawal threshold)” value ([4]; 10 mg/kg i.p. twice daily, 3 days) was “attenuated the magnitude of allodynia” and the “prevention of taxol-induced neuropathy development” value ([5]; 7.5 mg/kg i.p. BID initiated on day 12) was “prevented the further neuropathy development”. For the same compound, the “time to return to allodynic state after discontinuation” value ([5]; 7.5 mg/kg i.p. twice daily) was no more than 1 days, the “magnitude of allodynia, treatment of established taxol neuropathy” value ([5]; 7.5 mg/kg i.p. twice daily for 7 days, measured prior to morning dose) was “attenuated the magnitude of allodynia; also recorded: statistically significantly different from vehicle control” and the tissue distribution ([6]; 5 mg/kg i.p.) was “well distributed to peripheral (e.g. muscle) and central (e.g. brain and spinal cord) tissues”. For the same compound, the half-life ([6]; male, Sprague-Dawley, rat, ip, 5 mg/kg i.p., plasma, muscle, brain, spinal cord, read-out: elimination half-life in all tissue compartments) was 1.67 to 2.32 h, the Cmax ([6]; male, Sprague-Dawley, rat, plasma and CNS tissues (brain, spinal cord), ip, ~5 mg/kg i.p., 15% ethanol/saline, read-out: maximal concentration (Cmax) in plasma and CNS tissues) was roughly 1000 ng/mL and the “multi-dose steady state Cmax” value ([7]; 10 mg BID or TID, Cai-Li et al. 2003) was 45 ng/mL. The “single dose Cmax” value ([7]; 10 mg, Ketas Package Insert) was 25 ng/mL, the “production of IL-10, NGF, GDNF and NT-4” value (activated microglia) was “enhance” and the “production of nitric oxide (NO), reactive oxygen species, IL-1β, IL-6 and TNF” value (activated microglia) was “suppress”. For the same compound, the blood-brain barrier crossing [8] was “crosses the blood-brain barrier”.

For CN1CC[C@]23c4c5ccc(O)c4O[C@H]2[C@@H](O)C=C[C@H]3[C@H]1C5 [morphine], the “reversal of allodynia in comparison to vehicle control, combination study” value ([1]; 7.5 mg/kg ibudilast ip bid alone or with 1 mg/kg morphine s.c., several days) was “greater than that by ibudilast”.
